# In EP3335720A1, “C-DI-GMP BINDING PEPTIDES” (Universität Basel, priority 2016, dated 2018):
# Where two headings read alike, the source gives them in different places. Square brackets hold non-standard residues; d marks the D form. Peptide text beside a SMILES is read from it.
# Key:
# c-di-GMP = test: Binding affinity of peptides to c-di-GMP by isothermal titration calorimetry (ITC); settings: for Kd: 15°C, pH 8.0, read-out: Dissociation constant; for binding affinity to c-di-GMP, in words: compared to the core sequence / peptide of SEQ ID NO: 12; for decrease of c-di-GMP binding affinity compared to the peptide of SEQ ID NO: 12: single amino acid deletion
# Description: Binding affinities of peptides to c-di-GMP were measured using isothermal titration calorimetry (ITC) on a VP-ITC MicroCalorimeter (MicroCal, Northampton, MA, USA). Peptides, c-di-GMP and buffer (50 mM Tris-HCl, pH 8.0, 100 mM NaCl) were degassed for 15 min prior to filling into sample cell and syringe. All experiments were carried out at a temperature of 15°C. The data were evaluated using ITC Data Analysis in ORIGIN provided by the manufacturer.
# in vitro = in vitro ADME, P. aeruginosa PAO1; settings: for remaining at 2 h: cells or culture medium
# Description: P. aeruginosa PAO1 lysate, which was used to test peptide stability, was prepared by the following procedure. 500 ml of cells grown overnight at 37°C were harvested by centrifugation at 5000 rpm, 10 min at 4°C. Pellets were resuspended in 60 ml PBS (Gibco) and centrifuged at 5000 rpm, 10 min at 4°C. Pellets were resuspended again in 20 ml PBS and centrifuged at 5000 rpm, 10 min at 4°C. Cells were disrupted using high-pressure cell disrupter (Stansted Fluid Power). Cell lysate was separated from cell debris by centrifugation at 14,000 rpm for 20 min at 4°C. Lysate was diluted 10 fold to yield a protein content of about 1 mg/ml. The lysate was used for all experiments described below.
# The stability of peptides was tested against P. aeruginosa PAO1 cell lysate. About 1 to 3 µg of peptides were incubated with 5 µl P. aeruginosa PAO1 cell lysate or PBS (untreated controls) at 37°C. After 2 hours, 6 µl of 2x SDS sample buffer was added to the samples and heated to 95°C for 5 min. Samples were analyzed on 10-20% Mini-PROTEAN tris-tricine gels (BIO-RAD #4563115) according to manufacturer's recommended protocol. Band intensities were quantified using the program ImageJ (Schneider, C. A., Rasband, W. S. and Eliceiri, K. W. 2012. NIH Image to ImageJ: 25 years of image analysis. Nature methods. 9: 671-675).
# [1] = Table 3, peptides with amino acid substitution
# [2] = Table 4, deletion of single amino acid
compound,measurement,setting,value
Ac-DRRRFNSADYKGPRRRAAD-NH2 [compound 29],Kd,c-di-GMP; [1],270 nM
same,remaining at 2 h,in vitro,9%
Ac-DRRRFNSADYKGPRARKAD-NH2 [compound 27],Kd,c-di-GMP; [1],3950 nM
same,remaining at 2 h,in vitro,2%
"Ac-ARRRFNSADYKGPRRRKAD-NH2 [SEQ ID NO: 13, AC-ARRRFNSADYKGPRRRKAD-NH2]","binding affinity to c-di-GMP, in words",c-di-GMP,significantly reduced binding affinities
"Ac-DRRRFNSADYKPRRRKAD-NH2 [SEQ ID NO: 38, AC-DRRRFNSADYKPRRRKAD-NH2]",decrease of c-di-GMP binding affinity compared to the peptide of SEQ ID NO: 12,c-di-GMP,about 12 fold
"C[C@H](NC(=O)[C@H](CO)NC(=O)[C@H](CC(N)=O)NC(=O)[C@H](Cc1ccccc1)NC(=O)[C@H](CCCNC(=N)N)NC(=O)[C@H](CCCNC(=N)N)NC(=O)[C@H](CCCNC(=N)N)NC(=O)[C@H](CC(=O)O)NC(=O)[C@H](N)CCCNC(=N)N)C(=O)N[C@@H](CC(=O)O)C(=O)N[C@@H](Cc1ccc(O)cc1)C(=O)N[C@@H](CCCCN)C(=O)NCC(=O)N1CCC[C@H]1C(=O)N[C@@H](CCCNC(=N)N)C(=O)N[C@@H](CCCNC(=N)N)C(=O)N[C@@H](CCCNC(=N)N)C(=O)N[C@@H](CCCCN)C(=O)N[C@@H](C)C(=O)N[C@@H](CC(=O)O)C(=O)N[C@H](C)C(N)=O [SEQ ID NO: 42, rDRRRFNSADYKGPRRRKADa-NH2] (H-[dR]DRRRFNSADYKGPRRRKAD[dA]-NH2)",Remaining peptide after 2 hours,in vitro,significant improvement
"Ac-DRRRNSADYKGPRRRKAD-NH2 [SEQ ID NO: 33, AC-DRRRNSADYKGPRRRKAD-NH2]","binding affinity to c-di-GMP, in words",c-di-GMP,Affinity decreased further
"Ac-DRRRFNSADYKGPRARKAD-NH2 [SEQ ID NO: 27, AC-DRRRFNSADYKGPRARKAD-NH2]","binding affinity to c-di-GMP, in words",c-di-GMP,significantly reduced binding affinities
"Ac-DRRRFSADYKGPRRRKAD-NH2 [SEQ ID NO: 34, AC-DRRRFSADYKGPRRRKAD-NH2]","binding affinity to c-di-GMP, in words",c-di-GMP,Affinity decreased further
"Ac-DRRRFNSADAKGPRRRKAD-NH2 [SEQ ID NO: 22, AC-DRRRFNSADAKGPRRRKAD-NH2]","binding affinity to c-di-GMP, in words",c-di-GMP,significantly reduced binding affinities
"Ac-DRRRFNSADYKGARRRKAD-NH2 [SEQ ID NO: 25, AC-DRRRFNSADYKGARRRKAD-NH2]","binding affinity to c-di-GMP, in words",c-di-GMP,sufficiently high to bind c-di-GMP
Ac-DRRRFNSAYKGPRRRKAD-NH2 [compound 37],Kd,c-di-GMP; [2],440 nM
Ac-DRRRFNADYKGPRRRKAD-NH2 [compound 35],Kd,c-di-GMP; [2],440 nM
"Ac-DRRAFNSADYKGPRRRKAD-NH2 [SEQ ID NO: 16, AC-DRRAFNSADYKGPRRRKAD-NH2]","binding affinity to c-di-GMP, in words",c-di-GMP,sufficiently high to bind c-di-GMP
Ac-DRRRFSADYKGPRRRKAD-NH2 [compound 34],Kd,c-di-GMP; [2],1250 nM
Ac-DRRRNSADYKGPRRRKAD-NH2 [compound 33],Kd,c-di-GMP; [2],1270 nM
"Ac-DRRRFNSAYKGPRRRKAD-NH2 [SEQ ID NO: 37, AC-DRRRFNSAYKGPRRRKAD-NH2]",decrease of c-di-GMP binding affinity compared to the peptide of SEQ ID NO: 12,c-di-GMP,2 to 3 fold
"Ac-DRRRFNSADYKAPRRRKAD-NH2 [SEQ ID NO: 24, AC-DRRRFNSADYKAPRRRKAD-NH2]","binding affinity to c-di-GMP, in words",c-di-GMP,significantly reduced binding affinities
"Ac-DRRRFNSADYKGPRRRKLD-NH2 [SEQ ID NO: 30, AC-DRRRFNSADYKGPRRRKLD-NH2]","binding affinity to c-di-GMP, in words",c-di-GMP,does not significantly reduce binding affinity
"Ac-DRRRFNSADYKGPARRKAD-NH2 [SEQ ID NO: 26, AC-DRRRFNSADYKGPARRKAD-NH2]","binding affinity to c-di-GMP, in words",c-di-GMP,significantly reduced binding affinities
Ac-DRRFNSADYKGPRRRKAD-NH2 [compound 32],Kd,c-di-GMP; [2],1040 nM
CC(=O)N[C@H](CCCNC(=N)N)C(=O)N[C@@H](CC(=O)O)C(=O)N[C@@H](CCCNC(=N)N)C(=O)N[C@@H](CCCNC(=N)N)C(=O)N[C@@H](CCCNC(=N)N)C(=O)N[C@@H](Cc1ccccc1)C(=O)N[C@@H](CC(N)=O)C(=O)N[C@@H](CO)C(=O)N[C@@H](C)C(=O)N[C@@H](CC(=O)O)C(=O)N[C@@H](Cc1ccc(O)cc1)C(=O)N[C@@H](CCCCN)C(=O)NCC(=O)N1CCC[C@H]1C(=O)N[C@@H](CCCNC(=N)N)C(=O)N[C@@H](CCCNC(=N)N)C(=O)N[C@@H](CCCNC(=N)N)C(=O)N[C@@H](CCCCN)C(=O)N[C@@H](C)C(=O)N[C@@H](CC(=O)O)C(=O)N[C@H](C)C(N)=O [compound 41] (Ac-[dR]DRRRFNSADYKGPRRRKAD[dA]-NH2),remaining at 2 h,in vitro,19%
"Ac-DRRRFNADYKGPRRRKAD-NH2 [SEQ ID NO: 35, AC-DRRRFNADYKGPRRRKAD-NH2]",decrease of c-di-GMP binding affinity compared to the peptide of SEQ ID NO: 12,c-di-GMP,2 to 3 fold
"Ac-DRRRFNSADYAGPRRRKAD-NH2 [SEQ ID NO: 23, AC-DRRRFNSADYAGPRRRKAD-NH2]","binding affinity to c-di-GMP, in words",c-di-GMP,does not significantly reduce binding affinity
C[C@H](NC(=O)[C@H](CO)NC(=O)[C@H](CC(N)=O)NC(=O)[C@H](Cc1ccccc1)NC(=O)[C@H](CCCNC(=N)N)NC(=O)[C@H](CCCNC(=N)N)NC(=O)[C@H](CCCNC(=N)N)NC(=O)[C@H](CC(=O)O)NC(=O)[C@H](N)CCCNC(=N)N)C(=O)N[C@@H](CC(=O)O)C(=O)N[C@@H](Cc1ccc(O)cc1)C(=O)N[C@@H](CCCCN)C(=O)NCC(=O)N1CCC[C@H]1C(=O)N[C@@H](CCCNC(=N)N)C(=O)N[C@@H](CCCNC(=N)N)C(=O)N[C@@H](CCCNC(=N)N)C(=O)N[C@@H](CCCCN)C(=O)N[C@@H](C)C(=O)N[C@@H](CC(=O)O)C(=O)N[C@H](C)C(N)=O [compound 42] (H-[dR]DRRRFNSADYKGPRRRKAD[dA]-NH2),remaining at 2 h,in vitro,38%
C[C@H](NC(=O)[C@H](CO)NC(=O)[C@H](CC(N)=O)NC(=O)[C@H](Cc1ccccc1)NC(=O)[C@H](CCCNC(=N)N)NC(=O)[C@H](CCCNC(=N)N)NC(=O)[C@H](CCCNC(=N)N)NC(=O)[C@H](N)CC(=O)O)C(=O)N[C@@H](CC(=O)O)C(=O)N[C@@H](Cc1ccc(O)cc1)C(=O)N[C@@H](CCCCN)C(=O)NCC(=O)N1CCC[C@H]1C(=O)N[C@@H](CCCNC(=N)N)C(=O)N[C@@H](CCCNC(=N)N)C(=O)N[C@@H](CCCNC(=N)N)C(=O)N[C@@H](CCCCN)C(=O)N[C@@H](C)C(=O)N[C@H](CC(=O)O)C(=O)O [compound 39] (H-[dD]RRRFNSADYKGPRRRKA[dD]-OH),remaining at 2 h,in vitro,19%
Ac-DRRRANSADYKGPRRRKAD-NH2 [compound 17],Kd,c-di-GMP; [1],140 nM
Ac-DRRRFNSDYKGPRRRKAD-NH2 [compound 36],Kd,c-di-GMP; [2],340 nM
"Ac-DRRRFNSLDYKGPRRRKAD-NH2 [SEQ ID NO: 20, AC-DRRRFNSLDYKGPRRRKAD-NH2]","binding affinity to c-di-GMP, in words",c-di-GMP,does not significantly reduce binding affinity
"Ac-DRARFNSADYKGPRRRKAD-NH2 [SEQ ID NO: 15, AC-DRARFNSADYKGPRRRKAD-NH2]","binding affinity to c-di-GMP, in words",c-di-GMP,significantly reduced binding affinities
"Ac-DRRRFNSDYKGPRRRKAD-NH2 [SEQ ID NO: 36, AC-DRRRFNSDYKGPRRRKAD-NH2]",decrease of c-di-GMP binding affinity compared to the peptide of SEQ ID NO: 12,c-di-GMP,2 to 3 fold
"Ac-DARRFNSADYKGPRRRKAD-NH2 [SEQ ID NO: 14, AC-DARRFNSADYKGPRRRKAD-NH2]","binding affinity to c-di-GMP, in words",c-di-GMP,significantly reduced binding affinities
"Ac-DRRRFNSADYKGPRRRKAA-NH2 [SEQ ID NO: 31, AC-DRRRFNSADYKGPRRRKAA-NH2]","binding affinity to c-di-GMP, in words",c-di-GMP,significantly reduced binding affinities
"Ac-DRRRFNSAAYKGPRRRKAD-NH2 [SEQ ID NO: 21, AC-DRRRFNSAAYKGPRRRKAD-NH2]","binding affinity to c-di-GMP, in words",c-di-GMP,does not significantly reduce binding affinity
"Ac-DRRFNSADYKGPRRRKAD-NH2 [SEQ ID NO: 32, AC-DRRFNSADYKGPRRRKAD-NH2]","binding affinity to c-di-GMP, in words",c-di-GMP,Affinity decreased further
"Ac-DRRRFNAADYKGPRRRKAD-NH2 [SEQ ID NO: 19, AC-DRRRFNAADYKGPRRRKAD-NH2]","binding affinity to c-di-GMP, in words",c-di-GMP,does not significantly reduce binding affinity
"Ac-DRRRFNSADYKGPRRRAAD-NH2 [SEQ ID NO: 29, AC-DRRRFNSADYKGPRRRAAD-NH2]","binding affinity to c-di-GMP, in words",c-di-GMP,does not significantly reduce binding affinity
"Ac-DRRRFASADYKGPRRRKAD-NH2 [SEQ ID NO: 18, AC-DRRRFASADYKGPRRRKAD-NH2]","binding affinity to c-di-GMP, in words",c-di-GMP,does not significantly reduce binding affinity
Ac-DRRRFNSADYKPRRRKAD-NH2 [compound 38],Kd,c-di-GMP; [2],1950 nM
C[C@H](NC(=O)[C@H](CO)NC(=O)[C@H](CC(N)=O)NC(=O)[C@H](Cc1ccccc1)NC(=O)[C@H](CCCNC(=N)N)NC(=O)[C@H](CCCNC(=N)N)NC(=O)[C@H](CCCNC(=N)N)NC(=O)[C@H](CC(=O)O)NC(=O)[C@H](N)CCCNC(=N)N)C(=O)N[C@@H](CC(=O)O)C(=O)N[C@@H](Cc1ccc(O)cc1)C(=O)N[C@@H](CCCCN)C(=O)NCC(=O)N1CCC[C@H]1C(=O)N[C@@H](CCCNC(=N)N)C(=O)N[C@@H](CCCNC(=N)N)C(=O)N[C@@H](CCCNC(=N)N)C(=O)N[C@@H](CCCCN)C(=O)N[C@@H](C)C(=O)N[C@@H](CC(=O)O)C(=O)N[C@H](C)C(=O)O [compound 40] (H-[dR]DRRRFNSADYKGPRRRKAD[dA]-OH),remaining at 2 h,in vitro,15%
